What was measured:
Type in all cases: biochemical
β-galactosidase [1] = biological target: T1, β-galactosidase (Escherichia coli, UniProt P00722); test: Droplet microfluidic KM measurement, on-chip dilution system (Example 1e); parameters: purchased Sigma-Aldrich Co; details: 75 s droplet incubation, Michaelis-Menten fit, read-out: KM of RBG in the enzyme/substrate system
Protocol: In the examples, the model systems comprised an enzyme, a substrate, and an inhibitor for IC50 measurements and an enzyme and substrate alone for KM measurements. In all cases the enzyme was β-galactosidase (Sigma-Aldrich Co.), the substrate was resorufin β-D-galactopyranoside (RBG; Invitrogen Corporation), and the inhibitor was phenylethyl β-D-thiogalactopyranoside (PETG; Invitrogen Corporation).
An aqueous phase of 520 μM RBG (the substrate), 100 μM sodium fluorescein, and 5% (v/v) DMSO in PBS were injected into the ‘compound’ input of the microfluidic device (FIG. 4) at a flow rate of 111 μl/hr. A second aqueous phase, 5% (v/v) DMSO in PBS, was injected into the ‘diluent’ input at a flow rate of 389 μl/hr. […]
A series of microdroplets were created containing RBG (and sodium fluorescein) at different concentrations: from zero to 260 μM (50 μM sodium fluorescein) and then from 260 μM to zero. […] The amounts of fluorescent resorufin (liberated by β-galactosidase activity) and sodium fluorescein were measured for each droplet by monitoring fluorescence intensity in the 590-625 and 500-520 nm channels, respectively.
A Michaelis-Menten curve was fitted to the points using the DRC package in R (FIG. 8). […] This value compares favorably to the value measured in a standard microplate assay: 115.6 μM (95% confidence intervals: 102.7-128.6 μM).

β-galactosidase [2] = biological target: T1, β-galactosidase; test: Standard microplate assay (Example 1 comparison values); parameters: purchased Sigma-Aldrich Co; details: read-out: KM of RBG measured in a standard microplate assay
PTP1B = biological target: T2, PTP1B (Homo sapiens, UniProt P18031); test: Microplate dose-response assay, PTP1B
T2 construct: purchased EMD Biosciences, Inc
T2 sequence (P18031 1-435): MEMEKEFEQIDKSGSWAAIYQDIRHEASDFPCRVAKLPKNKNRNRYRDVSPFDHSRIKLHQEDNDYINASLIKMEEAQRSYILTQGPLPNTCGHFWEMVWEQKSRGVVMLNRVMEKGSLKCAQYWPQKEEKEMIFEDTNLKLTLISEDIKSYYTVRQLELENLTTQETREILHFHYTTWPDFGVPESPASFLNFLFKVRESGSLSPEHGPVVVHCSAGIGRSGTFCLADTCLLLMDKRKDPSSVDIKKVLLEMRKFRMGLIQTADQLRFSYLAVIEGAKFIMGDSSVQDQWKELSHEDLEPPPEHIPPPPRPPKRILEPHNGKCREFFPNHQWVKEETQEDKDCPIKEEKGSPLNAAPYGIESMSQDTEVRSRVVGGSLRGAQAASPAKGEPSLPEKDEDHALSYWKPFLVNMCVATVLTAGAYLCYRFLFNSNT
Protocol: For PTP1B, the same approach was used with the following alterations: the inhibitor was diluted in 50 mM HEPES pH 7.2; the solution of enzyme was 10 mg/l PTP1B (EMD Biosciences, Inc., California, USA) in 50 mM HEPES pH 7.2 containing 2 mM DTT, 2 mM EDTA, and 2 g/l BSA; and the solution of substrate was 68 μM FDP in 50 mM HEPES pH 7.2.

[3] = biological target: T3, protein tyrosine phosphatase 1B (PTP1B) (Homo sapiens, UniProt P18031); test: High-resolution dose-response screening of PTP1B with a chemical library in droplets, FDP substrate
T3 construct: purchased EMD Biosciences, Inc
T3 sequence (P18031 1-435): T2 sequence (P18031 1-435)
Protocol: High-resolution dose-response screening of PTP1B inhibition was performed in a similar manner to the screening of β-galactosidase inhibition (see above), but with the following changes: 50 mM HEPES pH 7.2 was used in place of PBS; the enzyme solution was 20 mg/l PTP1B in 50 mM HEPES pH 7.2 containing 4 mM DTT, 4 mM EDTA, and 4 g/l BSA; and the substrate solution was 68 μM FDP in 50 mM HEPES pH 7.2. In place of the 96-well plate were two 384-well plates containing 704 compounds comprising a subset of the Prestwick Chemical Library® (FIG. 21). These plates were prepared by diluting 1 μl aliquots of the compounds in pure DMSO to 10 μl of 240 μM concentration in 50 mM HEPES pH 7.2 by serial dilution. The compounds occupied columns 1 to 22 of each plate, while the wells in column 23 contained 10 μl of 240 μM sodium suramin (in the same buffer) and the wells in column 24 contained 10 μl of buffer alone.
Injections were performed as described above. […] In this case the dispersion coefficients were assumed to be identical and the compound concentration in each droplet was calculated by assuming a linear correlation between NIR fluorescence and compound concentration.

T1 sequence (P00722 2-1024 limits assumed): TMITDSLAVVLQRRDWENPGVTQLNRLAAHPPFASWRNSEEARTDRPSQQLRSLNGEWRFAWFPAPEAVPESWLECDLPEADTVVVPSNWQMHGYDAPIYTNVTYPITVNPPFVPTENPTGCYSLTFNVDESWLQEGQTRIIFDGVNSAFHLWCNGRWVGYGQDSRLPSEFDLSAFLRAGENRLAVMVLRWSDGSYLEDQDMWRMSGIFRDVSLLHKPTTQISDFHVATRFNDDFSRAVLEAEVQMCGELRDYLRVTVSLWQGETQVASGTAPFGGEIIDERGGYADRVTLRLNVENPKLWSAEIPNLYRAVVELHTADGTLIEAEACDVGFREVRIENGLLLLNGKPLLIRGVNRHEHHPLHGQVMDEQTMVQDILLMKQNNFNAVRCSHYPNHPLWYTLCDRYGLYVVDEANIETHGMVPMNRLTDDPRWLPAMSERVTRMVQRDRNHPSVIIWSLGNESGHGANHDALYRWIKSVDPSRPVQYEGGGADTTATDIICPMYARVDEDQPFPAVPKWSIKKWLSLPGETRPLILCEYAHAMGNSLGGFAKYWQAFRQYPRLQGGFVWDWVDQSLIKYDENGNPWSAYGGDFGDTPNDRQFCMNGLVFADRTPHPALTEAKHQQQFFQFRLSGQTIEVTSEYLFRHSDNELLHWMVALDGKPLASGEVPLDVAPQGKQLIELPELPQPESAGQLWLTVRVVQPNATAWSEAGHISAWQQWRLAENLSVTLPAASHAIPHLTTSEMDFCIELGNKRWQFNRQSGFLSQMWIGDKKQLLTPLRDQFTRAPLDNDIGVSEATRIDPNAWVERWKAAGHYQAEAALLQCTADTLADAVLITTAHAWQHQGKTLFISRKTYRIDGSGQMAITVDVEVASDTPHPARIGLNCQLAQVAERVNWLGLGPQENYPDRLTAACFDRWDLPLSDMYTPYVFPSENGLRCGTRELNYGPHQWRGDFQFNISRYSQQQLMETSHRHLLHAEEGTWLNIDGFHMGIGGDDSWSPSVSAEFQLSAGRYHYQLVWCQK

## O=c1ccc2nc3ccc(O[C@@H]4O[C@H](CO)[C@H](O)[C@H](O)[C@H]4O)cc3oc-2c1 [RBG, resorufin β-D-galactopyranoside]
β-galactosidase [1]
  Km: 446 µM
β-galactosidase [2]
  Km: 116 µM

## O=C(O)c1cc(-c2ccc(F)cc2F)ccc1O [diflunisal]
PTP1B
  confirmation of activity in microplate: confirmed in microplate
[3]; droplets
  effect on PTP1B in high-resolution dose-response curves: weak activator

## Cn1cc[nH]c1=S [methimazole]
PTP1B
  confirmation of activity in microplate: not confirmed in microplate
[3]; droplets
  effect on PTP1B in high-resolution dose-response curves: weak inhibitor

## NC(=O)c1cc[n+](CC2=C(C(=O)[O-])N3C(=O)[C@@H](NC(=O)[C@@H](c4ccccc4)S(=O)(=O)[O-])[C@H]3SC2)cc1.[Na+] [sodium cefsulodine]
PTP1B
  confirmation of activity in microplate: confirmed in microplate
[3]; droplets
  effect on PTP1B in high-resolution dose-response curves: strong inhibition of PTP1B
[3]; droplets, 4-parameter Hill fit
  IC50: 33 µM

## Cc1ccc(C(=O)Nc2ccc(S(=O)(=O)[O-])c3cc(S(=O)(=O)[O-])cc(S(=O)(=O)[O-])c23)cc1NC(=O)c1cccc(NC(=O)Nc2cccc(C(=O)Nc3cc(C(=O)Nc4ccc(S(=O)(=O)[O-])c5cc(S(=O)(=O)[O-])cc(S(=O)(=O)[O-])c45)ccc3C)c2)c1.[Na+].[Na+].[Na+].[Na+].[Na+].[Na+] [sodium suramin]
PTP1B
  confirmation of activity in microplate: confirmed in microplate
[3]; 50 μM droplets
  inhibition: 89.9%
[3]; droplets
  effect on PTP1B in high-resolution dose-response curves: activate PTP1B at low concentrations (<10 μM) and inhibit it at higher concentrations

From patent US20130072404A1, “APPARATUS AND PROCESSES FOR GENERATING VARIABLE CONCENTRATION OF SOLUTES IN MICRODROPLETS” (UNIVERSITE DE STRASBOURG, priority 2009, published 2013)
